Data on six compounds can be found in publication PMC11504387, “Synthesis and Biological Activity Assessment of 2-Styrylbenzothiazoles as Potential Multifunctional Therapeutic Agents” (Antioxidants, 2024).

The IC50 is the concentration that inhibits the measured activity by half. Higher therefore signals lower potency.

Marks after values point to notes of the source that are not given here.

The nature of data set [1]: Photostability of O/W emulsions under solar simulator. It counts as physicochemical. As to conditions: for %UVAPfeff.: residual UVAPF after solar irradiation; for %UVAPfeff. / %SPFeff.: O/W emulsion on PMMA; for %SPFeff.: residual in vitro SPF after solar irradiation; for Photostability (classification, threshold 80%): O/W emulsion, solar irradiation. The protocol: Oil-in-water (O/W) emulsions containing individual filters were spread on PMMA sheet and irradiated with a solar simulator by applying different doses of UVA equivalent to an erythema effective radiant exposure of 100 J/m^2. Photostability was assessed by analysing the spectral transmittance, before and after irradiation, of the sunscreen thin film, measured before and after exposure from 290 to 400 nm. The residual percentages of SPF in vitro (%SPFeff.) and UVAPF (%UVAPFeff.) were calculated according to Equations (6) and (7), respectively. When the %SPFeff. and %UVAPFeff. are greater than or equal to 80, according to current regulations, a filter can be considered photostable [37].
To evaluate the effectiveness and safety profile of a sunscreen formulation, it is necessary to provide data on its photostability. Photodegradation data can be obtained by recording the pre- and post-irradiation transmittance spectra of PMMA plates with finger-coat formulations exposed to a dose of UVA capable of causing erythema. This method, established by Garoli et al., is used to determine photostability. The sun protection layer’s transmission in the range of 290–400 nm is recorded before and after exposure to sunlight, following the protocol.
The residual percentages of SPF in vitro (%SPFeff.) and UVAPf (%UVAPfeff.) were calculated using Equations (6) and (7) and are listed in Table 4. A filter can be classified as photostable if the %SPFeff. is greater than or equal to 80, according to regulatory standards. %SPFeff. = in vitro SPFafter/in vitro SPFbefore × 100(6) %UVAPfeff. = UVAPfafter/UVAPfbefore × 100(7) where SPFafter and SPFbefore are the SPF values calculated from the software after and before solar irradiation, and UVAPfafter and UVAPfbefore are the UVAPf values calculated from the software after and before solar irradiation.

Data set [2] has as its system skin HaCat keratinocytes. Kind of data set: Cell growth inhibition assay, HaCat. The format is cell-based, human. The note with it: Homo sapiens, HaCaT; 24 h incubation; mean ± SD. The protocol:
(§1) Cell growth inhibition analyses were performed on human melanoma Colo38 cells and skin HaCat keratinocytes. Human melanoma Colo38 cells were kindly given by Dr. Patrizio Giacomini (Laboratory of Immunology, Regina Elena Institute, Rome, Italy). HaCat cells were obtained from Istituto Zooprofilattico Sperimentale della Lombardia e dell’Emilia-Romagna, Brescia, Italy. Cells were seeded at 40,000 cells/mL and 25,000 cells/mL, respectively. Colo38 cells were maintained in RPMI 1640, supplemented with 10% foetal bovine serum (FBS), penicillin (100 Units/mL), and streptomycin (100 µg/mL). HaCat cells were maintained in DMEM, supplemented with 10% fatal bovine serum (FBS), penicillin (100 Units/mL), streptomycin (100 µg/mL) and glutamine (2 mM); the incubation was performed at 37 °C in a 5% CO2 atmosphere. Compounds were dissolved in DMSO to obtain 50 mM stock solutions and diluted before cell treatment in MeOH. The tested compounds were added at serial dilutions to the cell cultures (from 0.1 to 100 µM) and incubated for 24 h further. Cells were then harvested, suspended in physiological solution, and counted with a Z2 Coulter Counter (Coulter Electronics, Hialeah, FL, USA). The number of cells/mL and the IC50 values were determined when untreated cells were in the log phase of cell growth. Samples of vehicles and untreated cells were included in each plate. Cisplatin was used as positive control for the HaCat cells, while N1-(4-arylidene)-1H-(2-OH-4-N(Et)2-phenyl)-[d]imidazole-2-carbohydrazide was used as positive control for the Colo38 cell line.

Data set [3] concerns human melanoma Colo38 cells. Kind of data set: Cell growth inhibition assay, Colo38. The format is cell-based. As to conditions: for IC50: Homo sapiens, 24 h incubation, mean ± SD; for SI (selectivity index): IC50 HaCat / IC50 Colo38. The protocol: as §1
Data set [4] in a line: Ferric reducing antioxidant power (FRAP) test. The format is biochemical. The note with it: Trolox equivalents; mean ± SD. The protocol: The FRAP test, based on a colorimetric reaction, can assess the ability of a sample to reduce ferric ions to ferrous ions when complexed with 2,4,6-trispiridyl-s-triazine (TPTZ). The FRAP solution consisted of 0.1 M acetate buffer (pH 3.6), 10 mmol/L of TPTZ in 40 mM HCl and a 20 mM solution of FeCl3, in a 10:1:1 ratio. A 1.9 mL volume of the FRAP solution was incubated with 0.1 mL of the sample solution at 37 °C for 10 min. The absorbance was then read with a UV-Vis spectrophotometer at a wavelength of 593 nm, which corresponds to the maximum absorbance peak of the Fe^2+-TPTZ complex. Trolox® was used as a standard, and ferulic acid was used as positive control, and the results are expressed as µmol TE/g.

A short description of data set [5]: DPPH radical scavenging activity. The format is biochemical. As to conditions: mean ± SD; for DPPH Inhibition %: 1 mg/mL. The protocol:
For all the compounds, 0.750 mL of a DMSO-MeOH solution mixed with 1.5 mL of DPPH solution (0.004%) in MeOH was analysed. The samples were kept in the dark at room temperature for 30 min and then analysed with a spectrophotometer by reading the absorbance at 517 nm (lambda max of the absorption spectrum of the DPPH radical). Equation (5) was used to obtain the percentage inhibition (%) of the radical: DPPH radical-scavenging capacity (%) = [1 − (A1 − A2)/A0] × 100%(5) where A2 is the blank (MeOH), and A1 and A0 are, respectively, the recorded absorbances of the sample and control (0.750 MeOH and 1.5 mL DPPH solution), directly proportional to the concentration of residual DPPH. An initial screening was performed by testing all compounds at a concentration of 1 mg/mL (Trolox® was used as the standard); subsequently, compounds showing >90% radical inhibition were further tested to calculate their IC50 value (expressed in µg/mL). Ferulic acid was used as positive control. A linear regression was performed to calculate the sample concentration able to eliminate 50% of DPPH free radicals.
Background: DPPH is a stable violet radical that fades when it is reduced.

`COc1ccc(/C=C/c2nc3ccccc3s2)cc1O` [BZTst5, (E)-5-(2-(benzo[d]thiazol-2-yl)vinyl)-2-methoxyphenol]: in data set [1], the “%UVAPfeff.” value was 106.30% and the “%SPFeff.” value is 100.00%. This compound gave an IC50 in data set [2] of 86 ± 40.7 µM. Moreover, in data set [3], the IC50 was more than 100 µM and the “SI (selectivity index)” value was less than 1. Moreover, the FRAP in data set [4] came to 788.09 ± 14.46 µmolTE/g. Moreover, the “DPPH Inhibition %” value in data set [5] stood at 46.88 ± 0.60%.
For the compound `C(=C\c1nc2ccccc2s1)/c1ccccc1` [BZTst1, (E)-2-styrylbenzo[d]thiazole], in data set [1], the “Photostability (classification, threshold 80%)” value was “cannot be considered photostable”; the “%UVAPfeff.” value is 54.38%; the “%SPFeff.” value is given as 99.14%. For the same compound, the IC50 in data set [2] was more than 100 µM. Moreover, in data set [3], 85.6 ± 2.76 µM corresponded to half-maximal inhibition (IC50) and the “SI (selectivity index)” value is more than 1.17. For the same compound, in data set [4], the FRAP is given as 331.15 ± 6.29 µmolTE/g. Besides, the “DPPH Inhibition %” value in data set [5] is listed as “<LOQ ^b”.
Regarding `Oc1ccc(/C=C/c2nc3ccccc3s2)cc1` [BZTst2, (E)-4-(2-(benzo[d]thiazol-2-yl)vinyl)phenol], in data set [1], the “%UVAPfeff.” value is 95.96% and the “%SPFeff.” value was 104.43%. This compound also returned an IC50 in data set [2] of 85.8 ± 17.9 µM. Further, in data set [3], the IC50 was found to be 79.8 ± 4.7 µM and the “SI (selectivity index)” value is listed as 1.07. The FRAP in data set [4] is recorded as 1122.44 ± 25.14 µmolTE/g. Further, the “DPPH Inhibition %” value in data set [5] came to 26.70 ± 0.83%.
With `COc1cc(/C=C/c2nc3ccccc3s2)ccc1O` [BZTst6, (E)-4-(2-(benzo[d]thiazol-2-yl)vinyl)-2-methoxyphenol], in data set [1], the “Photostability (classification, threshold 80%)” value is “photostable”; the “%UVAPfeff.” value was 80.75%; the “%SPFeff.” value is listed as 93.59%. This compound also registered an IC50 in data set [2] of more than 100 µM. Further, in data set [3], the IC50 amounted to 71.5 ± 14.2 µM and the “SI (selectivity index)” value was more than 1.40. Also, the FRAP in data set [4] turned out to be 3262.22 ± 7.86 µmolTE/g. Also, in data set [5], the “DPPH Inhibition %” value is 18.86 ± 0.11 ^c %.
On to `Oc1ccc(/C=C/c2nc3ccccc3s2)cc1O` [BZTst4, (E)-4-(2-(benzo[d]thiazol-2-yl)vinyl)benzene-1,2-diol], for which, in data set [1], the “%UVAPfeff.” value was 101.57% and the “%SPFeff.” value is on record as 104.02%. For the same compound, the IC50 in data set [2] turned out to be 80.2 ± 24.7 µM. Besides, in data set [3], the IC50 is 58.1 ± 12.1 µM and the “SI (selectivity index)” value stood at 1.38. In addition, in data set [4], the FRAP is recorded as 5673.33 ± 86.42 µmolTE/g. In data set [5], the “DPPH Inhibition %” value stood at 88.54 ± 0.47%. In data set [5] (values in brackets), the “DPPH IC50 (sample concentration able to scavenge 50% of the DPPH radical)” value was 10.46 ± 0.27 µg/mL.
Consider `COc1ccc(/C=C/c2nc3ccccc3s2)cc1` [BZTst3, (E)-2-(4-methoxystyryl)benzo[d]thiazole], for which, in data set [1], the “%UVAPfeff.” value is recorded as 152.12% and the “%SPFeff.” value is 103.21%. For the same compound, the IC50 in data set [2] is more than 100 µM. In data set [3], this compound had a 50% inhibitory concentration (IC50) of more than 100 µM. In data set [4], the FRAP was 178.71 ± 8.17 µmolTE/g. Besides, the “DPPH Inhibition %” value in data set [5] is given as “<LOQ ^b”.
